# Tests used:
# [1] = test system: root apices of transgenic barley expressing ALMT1; assay: Malate efflux from excised root apices of transgenic barley expressing ALMT1; assay type: cell-based, Hordeum vulgare; conditions: for activation of malate efflux: 50 μM La or Er in basal solution
# Protocol: FIG. 4—Properties of malate efflux from root apices of transgenic barley expressing ALMT1. • (A) Effect of Al concentration on malate efflux (nmoles/h/apex). Excised root apices from ALMT1 line 5 (solid circles) were exposed to Al treatments from 0 to 50 μM in basal solution for 1 h. Error bars show ±standard errors of the means (n=3). The solid squares show efflux from root apices of the control line transformed with the empty vector. • (B) Effects of niflumic acid (nif; 0 to 100 μM), La (50 μM), Er (50 μM) and basal solution (0.2 mM CaCl2 pH 4.3) on malate efflux from root apices of line 5. Excised root apices from line 5 were exposed to the various treatments in basal solution for 1 h. Error bars show ±standard errors of the means (n=3).
# Malate efflux from root segments was assayed using a modification of methods described by Ryan et al. (1995a). Unless stated otherwise, 4 root apices 3 mm long were incubated with shaking in 1 ml of 0.2 mM CaCl2 (pH 4.3) for approximately 1 h. The apices were then rinsed with the CaCl2 solution three times and replaced with 1 ml of the same solution (control) or 1 ml of treatment solution (0.2 mM CaCl2 with added treatment at pH 4.3). After an incubation that typically lasted for 1 h, the solution was removed, dried and the residue re-suspended in 200 μl of buffer used for the spectrographic assay of malate (0.25 M glycine, 0.20 M hydrazine and 2.7 mM NAD adjusted to pH 9). A subsample (100 μl) was transferred to a micro-cuvette and the increase in absorbance at 340 nm measured 6 min after addition of 1 μl of malate dehydrogenase (5 mg/ml) was used to calculate the amount of malate by comparison to a standard curve.
# [2] = test system: root apices of transgenic barley expressing ALMT1; assay: K+ efflux from excised root apices of transgenic barley line 5; assay type: cell-based, Hordeum vulgare; conditions: line 5 excised apices, 50 μM Al, mean ±SE, n=4
# Protocol: Al-activated malate efflux from root apices of transgenic barley expressing ALMT1 was accompanied by the efflux of K^+. Net K^+ effluxes from excised apices of line 5 were calculated by subtracting corresponding values obtained for the vector only control line resulting in an efflux of 0.4±0.3 nmoles K^+/h/apex in the absence of Al and an efflux of 5.2±1.0 nmoles K^+/h/apex in the presence of 50 μM Al (means ±SE; n=4).
# [3] = test system: control barley plants (wild type and vector only, cv Golden Promise); assay: Al tolerance assay: root elongation in hydroponic culture, control plants; assay type: in vivo, Hordeum vulgare
# Protocol: (§1) Plants in hydroponic culture were assessed for Al tolerance using a hydroponic solution described as follows, supplemented with a range of AlCl3 concentrations. The hydroponic solution was made with distilled or deionised water containing 500 μM KNO3, 500 μM CaCl2, 500 μM NH4NO3, 150 μM MgSO4, 100 μM KH2PO4, 2 μM Fe:EDTA, 11 μM H3BO3, 2 μM MnCl2, 0.35 μM ZnCl2 and 0.2 μM CuCl2 adjusted to pH 5.5. The Al screening solution was the same solution as above except it contained 10 μM KH2PO4 instead of 100 μM, 2 μM FeCl3 instead of Fe:EDTA and was adjusted to pH 4.3 instead of 5.5, and was supplemented with AlCl3 at the stated concentration. The plants were grown using these solutions at a temperature of 18-25° C., usually at 20° C.
# (§2) Al tolerance was assessed by determining root elongation of plants grown in hydroponic culture in the continual presence of added Al. The three barley T0 lines that were transformed with ALMT1 and expressing the transgene in the roots were tested in a range of Al levels. […] The ALMT1 gene therefore provided a dramatic enhancement of Al tolerance on the barley plants, to a level that has not been seen previously.
# [4] = test system: transgenic barley T0 lines 4, 5 and 6 expressing ALMT1; assay: Al tolerance assay: root elongation in hydroponic culture, ALMT1 transgenic barley; assay type: in vivo, Hordeum vulgare
# Protocol: as §1, §2
smiles,measurement,setting,value
[Er] [erbium],activation of malate efflux,"[1]; line 5 root apices, 1 h","capable of eliciting malate efflux, albeit at a lower level than observed for Al"
[La] [Lanthanum],activation of malate efflux,"[1]; line 5 root apices, 1 h",ineffective in activating malate efflux
O=C(O)c1cccnc1Nc1cccc(C(F)(F)F)c1 [niflumic acid],effect on malate efflux,"[1]; line 5 root apices, niflumic acid 0 to 100 μM, basal solution, 1 h",inhibited
"[Cl][Al]([Cl])[Cl] [AlCl3, aluminium chloride]",net K+ efflux (vector only control values subtracted),[2],5.2±1.0 nmoles K+/h/apex
same,inhibition of root growth,[3]; 2 μM AlCl3,50%
same,inhibition of root growth,[3]; 6 μM AlCl3,85-90%
same,rate of malate efflux from root apices,"[1]; Al-activated efflux, transgenic barley",approx. 1 nmole/apex/h
same,added Al concentration up to which malate efflux increases before starting to level off,"[1]; line 5 root apices, Al 0 to 50 μM in basal solution (0.2 mM CaCl2 pH 4.3), 1 h",about 25 μM
same,inhibition of root growth,"[4]; ALMT1 line 5, hydroponic culture, 20M AlCl3 as printed",did not show significant inhibition of root growth
same,inhibition of root growth,"[4]; ALMT1 transgenic plants, hydroponic culture, 2, 6 or 12 μM AlCl3",did not exhibit any significant inhibition of root growth
